# Patent publication US20030171340A1 (priority 2002, published 2003)
# Tests used:
# [1] = tested on: New Ps isolate from sediment; test: Growth of new Ps isolate from sediment in the presence of tetracycline or tetracycline-Fe2+ complex; assay type: cell-based, Pseudomonas; conditions: experiment C
# Procedure: (§1) Individual components were tested for inhibition or enhancement of Pseudomonas isolated from the site.
# [2] = tested on: Pseudomonas isolate (Ps isolate, Susquehanna flats); test: Growth of Pseudomonas isolate in TSB in the presence of tetracycline, metal cations or tetracycline metal complexes; assay type: cell-based; conditions: for Ps isolate growth (S/I/+4): experiment D
# Procedure: as §1
Compound,Ps isolate growth (R/I/S) ([1]; 8 μg/mL),Ps isolate growth (R/I/S) ([1]; 40 μg/mL),Ps isolate growth (R/I/S) ([1]; 100 μg/mL),"Ps isolate growth ([2]; experiment A, metal cation alone, 1 mL TSB + 4 μl (4 μg/mL))",Ps isolate growth (S/I/+4) ([2]; 1 μg/mL),Ps isolate growth (S/I/+4) ([2]; 4 μg/mL),Ps isolate growth (S/I/+4) ([2]; 8 μg/mL),"Ps isolate growth (S/I/+4) ([2]; metal cation alone, concentration not given)"
CN(C)[C@@H]1C(O)=C(C(N)=O)C(=O)[C@@]2(O)C(O)=C3C(=O)c4c(O)cccc4[C@@](C)(O)[C@H]3C[C@@H]12 [tetracycline],R,R,R,,,,,
copper acetate [Cu^2+],,,,Growth,+4,I,S (no growth),+4
